From patent US20080027001A1, “NOGO RECEPTOR FUNCTIONAL MOTIFS, PEPTIDE MIMETICS, AND MUTATED FUNCTIONAL MOTIFS RELATED THERETO, AND METHODS OF USING THE SAME” (priority 2006, published 2008)
Where “and” joins values, the source holds several entries; their conditions need not be identical. Equal values may be shown once. Entries after “also recorded” stand apart in the source; their conditions may differ. Bridges are numbered along the chain shown (N, C = ends).

Assays:
cerebellar neurons [1] = experiment: Neurite outgrowth assay, inhibition by soluble MAG-Fc; assay type: cell-based, rat; conditions: for effect on MAG-Fc-suppressed neurite outgrowth / antagonism of MAG-mediated inhibition of axonal growth: peptide 100 μg/ml; for effect on MAG-Fc-suppressed neurite outgrowth: MAG-Fc 25 μg/ml (FIG. 5A); for peptide concentration with maximal effects on neurite outgrowth / peptide concentration with significant effects on neurite outgrowth: MAG-Fc 20 μg/ml (FIG. 6A); for antagonism of inhibitory activity of MAG-Fc: peptide 50 μg/ml (60 μM); for antagonism of inhibitory activity of MAG-Fc / efficacy of peptide relative to NRL2b over a range of concentrations: MAG-Fc 20 μg/ml; for antagonism of MAG-mediated inhibition of axonal growth: MAG-Fc 20 μg/ml (FIG. 6B); for efficacy of peptide relative to NRL2b over a range of concentrations: FIG. 6C, 6D, position 2 effect at 25-50 μg/ml
Description: (§1) Cerebellar neurons isolated from postnatal day ⅔ rat pups were cultured over monolayers of 3T3 cells (Doherty et al. (1991) Neuron 6(2):247-58) essentially as previously described (Williams et al. (1994) Neuron 13(3):583-94). Monolayers were established by seeding ˜80,000 cells into individual chambers of an eight-chamber tissue culture slide coated with poly-L-lysine and fibronectin. The cell lines, and monolayers, were maintained in Dulbecco's modified Eagle's medium supplemented with 10% fetal calf serum (FCS). Cocultures were established by removing the media from the monolayers and seeding ˜6000 dissociated cerebellar neurons into each well in SATO medium (modified from Doherty et al. (1990) Neuron 5(2):209-19; Dulbecco's modified Eagle's medium supplemented with 2% FBS, 33% bovine albumin, 0.62 μg/ml progesterone, 161 μg/ml putrescine, 4 μg/ml L-thyroxine, 0.387 μg/ml selenium, and 3.37 μg/ml tri-iodo-thyronine (components from Sigma-Aldrich, St. Louis, Mo.)). Monolayers were established for 24 hours prior to addition of the neurons and the cultures were maintained for ˜23-27 hr. Following careful fixation with 4% paraformaldehyde, the neurons were stained with a GAP-43 antibody, and the mean length of the longest neurite per cell was measured for ˜120-150 neurons, again as previously described (Williams et al. (1994) supra). For neurite outgrowth on substrate-bound MAG, 96-well plates were coated with a thin layer of nitrocellulose (Bio-Rad, Hercules, Calif.) before incubating with 1 μg/ml of MAG(d1-5) (a chimeric construct containing domains 1-5 of the extracellular portion of MAG) at 4° C. overnight. Wells were subsequently coated with 17 μg/ml of poly-D-lysine (Sigma, St. Louis, Mo.), followed by incubation in Dulbecco's modified Eagle's medium containing 10% FCS. Cerebellar granule neurons were dissociated and seeded at a density of 10^4 cells per well. Cells were cultured for 18-20 h before being fixed with 4% paraformaldehyde and stained with a neuronal-specific anti-III-tubulin antibody, Tuj 1 (Covance, Emeryville, Calif.). The average of total neurite lengths from each neuron was measured automatically by the MetaXpress Neurite Outgrowth module (Molecular Devices, Sunnyvale, Calif.) from at least 200 neurons per well, in triplicate wells per experiment. Results were repeated independently more than three times.
(§2) Synthetic peptides were all obtained from a commercial supplier (Multiple Peptide Systems, San Diego, Calif.). All peptides were purified to the highest grade by reverse-phase HPLC and obtained at the highest level of purity (>97%). With all peptides, there was no indication of higher molecular weight species. Where peptide sequences are underlined, this denotes a peptide that has been cyclized via a disulfide bond between the given cysteine residues. All peptides were acetylated (e.g., denoted with “N-Ac-”) and amide blocked (e.g., denoted with “—NH2”). Recombinant MAG-Fc chimera was obtained from R&D Systems (Minneapolis, Minn.) and used at final concentrations ranging from 5-25 μg/ml. The monoclonal antibody to GT1b (clone GMR5) was obtained from Seikagaku America (Falmouth, Mass.) and was used at a final concentration of 20 μg/ml. All reagents were diluted into the coculture media and, in general, added to the cultures just prior to the plating of the neurons. GT1b and GM1 were obtained as gifts from Dr. Gino Toffano (Libero, Italy) and University of Milan, and asialo-GM1 was obtained from Sigma (St. Louis, Mo.). The recombinant NgR1(310)-fc and MAG(d1-5) chimeras were expressed and purified in-house. Pharmacological reagents were obtained from Calbiochem (La Jolla, Calif.) and/or Sigma. For reagents used in cell-surface NgR binding assays, please see Examples 1.5 and 1.7. For reagents used in the cell surface p75NTR-NgR-AP binding assay, please see Example 1.13.
(§3) In contrast, a soluble MAG-Fc chimera inhibits neurite outgrowth in a manner that depends upon both ganglioside and NgR function. […]

cerebellar neurons [2] = experiment: Neurite outgrowth assay, control media (basal outgrowth); assay type: cell-based, rat; conditions: for effect on basal neurite outgrowth: peptide 100 μg/ml, without MAG-Fc
Description: as §1, §2, §3

NgR1(310)-fc = target: T1, NgR1(310)-fc (Homo sapiens, UniProt Q9BZR6); experiment: Analytical ultracentrifugation (sedimentation velocity), wild type receptor; assay type: binding; conditions: ganglioside 0 to 48 μM (FIG. 3A-C)
T1 construct: made in house; host or cells: mammalian expression vector (pSMED2)
T1 sequence (Q9BZR6 with tags, fused parts or gaps limits assumed): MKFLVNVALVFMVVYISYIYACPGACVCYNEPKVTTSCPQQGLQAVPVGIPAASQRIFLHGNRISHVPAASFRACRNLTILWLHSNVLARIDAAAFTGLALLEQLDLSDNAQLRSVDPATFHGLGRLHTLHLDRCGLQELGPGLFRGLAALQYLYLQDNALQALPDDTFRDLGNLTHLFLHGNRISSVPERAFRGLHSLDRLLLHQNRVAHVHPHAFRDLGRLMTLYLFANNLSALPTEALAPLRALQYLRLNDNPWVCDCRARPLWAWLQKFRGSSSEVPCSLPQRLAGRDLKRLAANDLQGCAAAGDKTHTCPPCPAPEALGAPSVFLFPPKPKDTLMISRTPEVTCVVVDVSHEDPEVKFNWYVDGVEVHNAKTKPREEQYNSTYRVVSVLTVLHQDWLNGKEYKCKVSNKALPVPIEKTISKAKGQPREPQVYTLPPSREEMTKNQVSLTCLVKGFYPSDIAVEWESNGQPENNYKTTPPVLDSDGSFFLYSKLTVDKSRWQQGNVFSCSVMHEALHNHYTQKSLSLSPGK
Source text: Human Nogo Receptor 1 (NgR1)(310)-fc point mutants (FRG-1 (R151E); FRG-2 (R279E); FRG-3 (R199E), and FRG-4 (R151E/R279E/R199E)) were constructed by Genewiz (North Brunswick, N.J.) using their site-directed mutagenesis technology. The template used to construct all the described mutants was wild type human NgR1(310)-fc (SEQ ID NO:59), which was generated by fusing a nucleotide sequence corresponding to the first 310 amino acid of Human Nogo Receptor 1 to a human Fc fragment in a mammalian expression vector (the sequence of wild type NgR1(310)-fc and the expression vector is set forth in SEQ ID NO:60 and a schematic of the expression vector is shown in FIG. 11). […]
Sedimentation velocity experiments were performed on a Beckman XLI/XLA analytical ultracentrifuge. […] Scans were recorded at 20° C. with a rotor speed of 35,000 rpm, and the signal was detected at 230 nm with a spacing of 0.006 in the continuous mode. Sedimentation profiles were analyzed by the program Sedfit (Schuck (2000) Biophys. J. 78:1606-19) to obtain the sedimentation coefficient distributions. The solvent density (1.006) and partial specific volume (0.72) were calculated using the program Sednterp (Laue et al. (1992) Analytical Ultracentrifugation in Biochemistry and Polymer Science (Harding, S. E., Towe, A. J. and Horton, J. C., eds.) pp. 90-125, Royal Society of Chemistry, Cambridge, U.K). […]

cerebellar neurons [3] = experiment: Neurite outgrowth assay, inhibition by GT1b antibody; assay type: cell-based, rat; conditions: peptide 100 μg/ml; antibody tested at up to 40 μg/ml
Description: Cerebellar neurons isolated from postnatal day ⅔ rat pups were cultured over monolayers of 3T3 cells (Doherty et al. (1991) Neuron 6(2):247-58) essentially as previously described (Williams et al. (1994) Neuron 13(3):583-94). Monolayers were established by seeding ˜80,000 cells into individual chambers of an eight-chamber tissue culture slide coated with poly-L-lysine and fibronectin. The cell lines, and monolayers, were maintained in Dulbecco's modified Eagle's medium supplemented with 10% fetal calf serum (FCS). […] Following careful fixation with 4% paraformaldehyde, the neurons were stained with a GAP-43 antibody, and the mean length of the longest neurite per cell was measured for ˜120-150 neurons, again as previously described (Williams et al. (1994) supra). […] The average of total neurite lengths from each neuron was measured automatically by the MetaXpress Neurite Outgrowth module (Molecular Devices, Sunnyvale, Calif.) from at least 200 neurons per well, in triplicate wells per experiment. […]

[4] = without MAG-Fc (data not shown)

Substance: N-Ac-CSLPQRLAC-NH2 (disulfide 1-9 (inferred)) [NRL3]
- effect on MAG-Fc-suppressed neurite outgrowth (cerebellar neurons [1]): no effect
- effect on basal neurite outgrowth (cerebellar neurons [2]): no effect

Substance: N-Ac-CKFRGSC-NH2 (disulfide 1-7 (inferred)) [NRL2a]
- peptide concentration with maximal effects on neurite outgrowth (cerebellar neurons [1]): 50 μg/ml and 60 μM
- peptide concentration with significant effects on neurite outgrowth (cerebellar neurons [1]): 25 μg/ml and 30 μM
- antagonism of inhibitory activity of MAG-Fc (cerebellar neurons [1]): effectively antagonized
- effect on neurite outgrowth in control media (cerebellar neurons [2]; [4]): no effect

Substance: asialo-GM1
- interaction with NgR1(310)-fc (shift of sedimentation coefficient) (NgR1(310)-fc): did not interact; also recorded: No change in sedimentation coefficient

Substance: N-Ac-CAGRDLKRC-NH2 (disulfide 1-9 (inferred)) [NRL4]
- effect on MAG-Fc-suppressed neurite outgrowth (cerebellar neurons [1]): no effect
- effect on basal neurite outgrowth (cerebellar neurons [2]): no effect

Substance: N-Ac-CQKFAGC-NH2 (disulfide 1-7 (inferred))
- antagonism of MAG-mediated inhibition of axonal growth (cerebellar neurons [1]): ineffective

Substance: N-Ac-CYNEPKVTC-NH2 (disulfide 1-9 (inferred)) [NRL1]
- effect on MAG-Fc-suppressed neurite outgrowth (cerebellar neurons [1]): no effect
- effect on basal neurite outgrowth (cerebellar neurons [2]): no effect

Substance: QKFRG (listed as Homo sapiens)
- antagonism of MAG-mediated inhibition of axonal growth (cerebellar neurons [1]): did not antagonize

Substance: N-Ac-CQKFRAC-NH2 (disulfide 1-7 (inferred))
- antagonism of MAG-mediated inhibition of axonal growth (cerebellar neurons [1]): ineffective

Substance: N-Ac-CQAFRGC-NH2 (disulfide 1-7 (inferred))
- efficacy of peptide relative to NRL2b over a range of concentrations (cerebellar neurons [1]): no obvious effect on the efficacy of the peptide
- antagonism of MAG-mediated inhibition of axonal growth (cerebellar neurons [1]): as effective as NRL2b

Substance: N-Ac-CQKFRGC-NH2 (disulfide 1-7 (inferred)) [NRL2b]
- peptide concentration with maximal effects on neurite outgrowth (cerebellar neurons [1]): 50 μg/ml and 60 μM
- peptide concentration with significant effects on neurite outgrowth (cerebellar neurons [1]): 25 μg/ml and 30 μM
- antagonism of inhibitory activity of MAG-Fc (cerebellar neurons [1]): effectively antagonized
- effect on neurite outgrowth in control media (cerebellar neurons [2]; [4]): no effect

Substance: N-Ac-CLQKFRGSSC-NH2 (disulfide 1-10 (inferred)) [NRL2]
- antagonism of GT1b antibody inhibition of neurite outgrowth (cerebellar neurons [3]): fully inhibited the response; also recorded: failed to inhibit neurite outgrowth
- peptide concentration at which response reaches plateau (cerebellar neurons [1]; MAG-Fc 25 μg/ml (FIG. 5B)): ~45 µM
- peptide concentration with near maximal inhibitory activity (cerebellar neurons [1]; MAG-Fc present): ~45 µM
- effect on MAG-Fc-suppressed neurite outgrowth (cerebellar neurons [1]): failed to substantially inhibit neurite outgrowth
- effect on basal neurite outgrowth (cerebellar neurons [2]): no effect
- effect on neurite outgrowth in control media (cerebellar neurons [2]; tested at up to 200 μg/ml): no significant effect

Substance: N-Ac-CQKARGC-NH2 (disulfide 1-7 (inferred))
- efficacy of peptide relative to NRL2b over a range of concentrations (cerebellar neurons [1]): reduced efficacy by about two-fold
- antagonism of MAG-mediated inhibition of axonal growth (cerebellar neurons [1]): as effective as NRL2b
